We go through 1 molecule from PMC11409218, “Metal(triphenylphosphine)-atovaquone Complexes: Synthesis, Antimalarial Activity, and Suppression of Heme Detoxification” (Inorganic Chemistry, 2024).

The subject of series [1] is 3D7 strain of P. falciparum. Kind of series: Coincubation of ATV with metal precursors, parasite growth inhibition (Figure 3C). To be noted: ATV 1.0 nM, [Au(PPh3)Cl] and [Cu(PPh3)2NO3] at 1000 nM. Format: cell-based, Plasmodium falciparum. The protocol: Figure 3 (A) Antiplasmodial activity of the compounds against the 3D7 strain of P. falciparum. (B) Cytotoxicity against the J774 cell line. In both cases, the compounds were diluted in cell culture and incubated for 0 or 72 h before use in the assays. […] In panels A and C, parasite viability was measured by HRP2 ELISA-based assay, and IC50 values were calculated. In panel B, cell viability was measured by CellTiter-Glo, and IC50 values were calculated. In panels A and B, the values are the mean and standard deviation of two independent experiments, using each concentration of compounds in duplicate. In panel C, the values are the mean and standard deviation of one experiment, using each concentration of compounds in quadruplicate. *p < 0.05; indicating significant difference by Student’s t test.
After ascertaining the existence of an association between the reactivity of the metal complexes and their pharmacological activity, we decided to evaluate whether they could be generated in situ upon coincubation of ATV and the respective metal precursors in the cell culture medium. In this set of experiments, ATV was added at 1.0 nM, while the metal precursors of gold(I) [Au(PPh3)Cl] and copper(I) [Cu(PPh3)2NO3] were added at 1000 nM (Figure 3C).

Series [2] can be described thus: Cytotoxicity in mammalian cells (CellTiter-Glo), J774. It is filed as cell-based. As to conditions: mouse, J774 macrophage cells; J774 murine macrophage line; 72 h drug incubation; mean of three experiments; read-out: mammalian cells CC50 (±SEM), J774. The protocol:
(§1) Cell lines J774 and HepG2 were incubated with the drug for 72 h, the same time frame as employed to determine antimalarial activity. Cytotoxicity was evaluated in parallel with ATV as a representative parental drug, while doxorubicin was used as a standard cytotoxic drug. These experiments were also used to estimate the in vitro selectivity index (Table 2).
(§2) Doxorubicin chloridrate (Eurofarma, São Paulo, Brazil) was used as a positive control, while untreated cells were employed as negative controls. Bioluminescence readings were performed using a Filtermax F5Multi-Mode instrument (Molecular Devices, Sunnyvale, CA) using the CellTiter-Glo kit (Promega Corporation, Madison, USA). Three independent experiments were performed and CC50 values were calculated.
In general terms: ATP-based viability assays read luminescence as a measure of living cells.

The nature of series [3]: Cytotoxicity in mammalian cells (CellTiter-Glo), HepG2. As to conditions: HepG2 hepatocellular carcinoma cells; HepG2 human hepatocellular carcinoma line; 72 h drug incubation; mean of three experiments; read-out: mammalian cells CC50 (±SEM), HepG2. Format: cell-based. How it is done:
as §1, §2

Molecules are shown by their SMILES.

With `O=C1C(O)=C([C@H]2CC[C@H](c3ccc(Cl)cc3)CC2)C(=O)c2ccccc21` [ATV, atovaquone], the “parasite growth inhibition of ATV in the absence or presence of metal precursors” value in series [1] is “did not observe a difference”. Also, the CC50 (usually the concentration that lowers cell viability or growth by half) at 72 h came out at 19.8 ± 1.6 µM in series [2] and 32.4 ± 4.8 µM in series [3].
